Data from patent publication US20120029187A1, “HALOALKYLSULFONANILIDE DERIVATIVE” (Nissan Chemical Industries, Ltd., priority 2009, published 2012).

Tests used:
Assay type in all cases: in vivo
large crabgrass [1] = assay: Test Example 3: herbicidal effects in soil treatment; conditions: dose 3.2 g/a
How it was run: (§1)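 Seeds were sown in sterilized diluvial soil and covered with about 1.5 cm of soil. Compounds, formulated as emulsifiable concentrates and diluted with water, were sprayed evenly over the soil surface at set doses in g/a. Herbicidal effect was scored on a rating scale three weeks later.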

barnyardgrass [2] = assay: as above; conditions: dose 3.2 g/a
How it was run: as §1

common ragweed [3] = assay: as above; conditions: dose 3.2 g/a
How it was run: as §1

Italian ryegrass [4] = assay: as above; conditions: dose 3.2 g/a
How it was run: as §1

velvetleaf [5] = assay: as above; conditions: dose 3.2 g/a
How it was run: as §1

common chickweed [6] = assay: as above; conditions: dose 3.2 g/a
How it was run: as §1

beadstraw [7] = assay: as above; conditions: dose 3.2 g/a
How it was run: as §1

water foxtail [8] = assay: as above; conditions: dose 3.2 g/a
How it was run: as §1

giant foxtail [9] = assay: as above; conditions: dose 3.2 g/a
How it was run: as §1

redroot pigweed [10] = assay: as above; conditions: dose 3.2 g/a
How it was run: as §1

common lambsquater [11] = assay: as above; conditions: dose 3.2 g/a
How it was run: as §1

wild oat [12] = assay: as above; conditions: dose 3.2 g/a
How it was run: as §1

barnyardgrass [13] = assay: Test Example 2: herbicidal effects during the vegetation period under submerged conditions; conditions: treatment during the vegetation period under submerged conditions; dose 2.52 g/a
How it was run: (§2)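 Barnyardgrass, bulrush and ducksalad were co-sown in alluvial soil flooded to 4 cm and grown in a greenhouse at 25 to 30° C. At the 1- or 2-leaf stage, water-diluted emulsifiable concentrates went onto the water surface at set doses (g/a). Herbicidal effect was scored three weeks later on a graded scale.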

ducksalad [14] = assay: as above; conditions: treatment during the vegetation period under submerged conditions; dose 2.52 g/a
How it was run: as §2

bulrush [15] = assay: as above; conditions: treatment during the vegetation period under submerged conditions; dose 2.52 g/a
How it was run: as §2

large crabgrass [16] = assay: Test Example 4: herbicidal effect in foliage treatment; conditions: dose 3.2 g/a, three weeks after application
How it was run: (§3)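 A uniform foliar spray of emulsifiable concentrate, diluted with water to give the stated g/a dose, was applied to plants raised for 14 days from seed in sterilized diluvial soil at 25 to 30° C. Herbicidal effects were scored three weeks later.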

posumbu knotweed = assay: as above; conditions: dose 3.2 g/a, three weeks after application
How it was run: as §3

barnyardgrass [17] = assay: as above; conditions: dose 3.2 g/a, three weeks after application
How it was run: as §3

common ragweed [18] = assay: as above; conditions: dose 3.2 g/a, three weeks after application
How it was run: as §3

Italian ryegrass [19] = assay: as above; conditions: dose 3.2 g/a, three weeks after application
How it was run: as §3

velvetleaf [20] = assay: as above; conditions: dose 3.2 g/a, three weeks after application
How it was run: as §3

common chickweed [21] = assay: as above; conditions: dose 3.2 g/a, three weeks after application
How it was run: as §3

beadstraw [22] = assay: as above; conditions: dose 3.2 g/a, three weeks after application
How it was run: as §3

water foxtail [23] = assay: as above; conditions: dose 3.2 g/a, three weeks after application
How it was run: as §3

giant foxtail [24] = assay: as above; conditions: dose 3.2 g/a, three weeks after application
How it was run: as §3

redroot pigweed [25] = assay: as above; conditions: dose 3.2 g/a, three weeks after application
How it was run: as §3

common lambsquater [26] = assay: as above; conditions: dose 3.2 g/a, three weeks after application
How it was run: as §3

wild oat [27] = assay: as above; conditions: dose 3.2 g/a, three weeks after application
How it was run: as §3

transplanted rice = assay: Test Example 1: preemergence treatment under submerged conditions, effect on crop; conditions: dose 2.52 g/a
How it was run: (§4)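 Score 0–5 by mortality (5: ≥90%; 0: <5%), read 3 weeks post-application. Paddy-type cups: alluvial soil under 4 cm water, weeds seeded plus transplanted 2.5-leaf rice; diluted EC dosed onto water surface same day as sowing, g/a basis; greenhouse 25 to 30° C.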

barnyardgrass [28] = assay: Test Example 1: herbicidal effects in preemergence treatment under submerged conditions; conditions: dose 2.52 g/a
How it was run: as §4

ducksalad [29] = assay: as above; conditions: dose 2.52 g/a
How it was run: as §4

bulrush [30] = assay: as above; conditions: dose 2.52 g/a
How it was run: as §4

| SMILES | D: large crabgrass, herbicidal effect (evaluation scale 0-5) (large crabgrass [1]) | A: barnyardgrass, herbicidal effect (evaluation scale 0-5) (barnyardgrass [2]) | J: common ragweed, herbicidal effect (evaluation scale 0-5) (common ragweed [3]) | H: Italian ryegrass, herbicidal effect (evaluation scale 0-5) (Italian ryegrass [4]) | I: velvetleaf, herbicidal effect (evaluation scale 0-5) (velvetleaf [5]) | N: common chickweed, herbicidal effect (evaluation scale 0-5) (common chickweed [6]) | O: beadstraw, herbicidal effect (evaluation scale 0-5) (beadstraw [7]) | G: water foxtail, herbicidal effect (evaluation scale 0-5) (water foxtail [8]) | E: giant foxtail, herbicidal effect (evaluation scale 0-5) (giant foxtail [9]) | K: redroot pigweed, herbicidal effect (evaluation scale 0-5) (redroot pigweed [10]) | L: common lambsquater, herbicidal effect (evaluation scale 0-5) (common lambsquater [11]) | F: wild oat, herbicidal effect (evaluation scale 0-5) (wild oat [12]) | A: barnyardgrass, herbicidal effect (evaluation scale 0-5) (barnyardgrass [13]) | C: ducksalad, herbicidal effect (evaluation scale 0-5) (ducksalad [14]) | B: bulrush, herbicidal effect (evaluation scale 0-5) (bulrush [15]) | D: large crabgrass, herbicidal effect (large crabgrass [16]) | M: posumbu knotweed, herbicidal effect (posumbu knotweed) | A: barnyardgrass, herbicidal effect (barnyardgrass [17]) | J: common ragweed, herbicidal effect (common ragweed [18]) | H: Italian ryegrass, herbicidal effect (Italian ryegrass [19]) | other results |
| --- | --- | --- | --- | --- | --- | --- | --- | --- | --- | --- | --- | --- | --- | --- | --- | --- | --- | --- | --- | --- | --- |
| COC(=O)N(c1ccccc1CN1COC(C)(C)CC1=O)S(=O)(=O)C(F)(F)F [II-22] | 5 (mortality of 90% or above (nearly complete death)) | 5 (mortality of 90% or above (nearly complete death)) | 3 (mortality of at least 40% and less than 70%) | 5 (mortality of 90% or above (nearly complete death)) | 5 (mortality of 90% or above (nearly complete death)) | 4 (mortality of at least 70% and less than 90%) | 5 (mortality of 90% or above (nearly complete death)) | 5 (mortality of 90% or above (nearly complete death)) | 3 (mortality of at least 40% and less than 70%) | 0 (mortality of less than 5% (almost ineffective)) | 4 (mortality of at least 70% and less than 90%) | 0 (mortality of less than 5% (almost ineffective)) | 5 (mortality of 90% or above (nearly complete death)) | 5 (mortality of 90% or above (nearly complete death)) | 5 (mortality of 90% or above (nearly complete death)) | 5 (mortality of 90% or above (nearly complete death)) | 3 (mortality of at least 40% and less than 70%) | 5 (mortality of 90% or above (nearly complete death)) | 4 (mortality of at least 70% and less than 90%) | 4 (mortality of at least 70% and less than 90%) | I: velvetleaf, herbicidal effect (velvetleaf [20]): 5 (mortality of 90% or above (nearly complete death)); N: common chickweed, herbicidal effect (common chickweed [21]): 3 (mortality of at least 40% and less than 70%); O: beadstraw, herbicidal effect (beadstraw [22]): 5 (mortality of 90% or above (nearly complete death)); G: water foxtail, herbicidal effect (water foxtail [23]): 5 (mortality of 90% or above (nearly complete death)); E: giant foxtail, herbicidal effect (giant foxtail [24]): 5 (mortality of 90% or above (nearly complete death)); K: redroot pigweed, herbicidal effect (redroot pigweed [25]): 0 (mortality of less than 5% (almost ineffective)); L: common lambsquater, herbicidal effect (common lambsquater [26]): 3 (mortality of at least 40% and less than 70%); F: wild oat, herbicidal effect (wild oat [27]): 0 (mortality of less than 5% (almost ineffective)); a: transplanted rice, effect on crop (evaluation scale 0-5) (transplanted rice): 0 (mortality of less than 5% (almost ineffective)); A: barnyardgrass, herbicidal effect (evaluation scale 0-5) (barnyardgrass [28]): 5 (mortality of 90% or above (nearly complete death)); C: ducksalad, herbicidal effect (evaluation scale 0-5) (ducksalad [29]): 5 (mortality of 90% or above (nearly complete death)); B: bulrush, herbicidal effect (evaluation scale 0-5) (bulrush [30]): 5 (mortality of 90% or above (nearly complete death)) |
| CCCOC(=O)N(c1ccccc1CN1COC(C)(C)C(F)C1=O)S(=O)(=O)C(F)(F)F (stereo not shown) [II-35] | 5 (mortality of 90% or above (nearly complete death)) | 5 (mortality of 90% or above (nearly complete death)) | 4 (mortality of at least 70% and less than 90%) | 4 (mortality of at least 70% and less than 90%) | 3 (mortality of at least 40% and less than 70%) | 1 (mortality of at least 5% and less than 20%) | 4 (mortality of at least 70% and less than 90%) | 5 (mortality of 90% or above (nearly complete death)) | 3 (mortality of at least 40% and less than 70%) | 2 (mortality of at least 20% and less than 40%) | 0 (mortality of less than 5% (almost ineffective)) | 3 (mortality of at least 40% and less than 70%) | 5 (mortality of 90% or above (nearly complete death)) | 5 (mortality of 90% or above (nearly complete death)) | 5 (mortality of 90% or above (nearly complete death)) | 5 (mortality of 90% or above (nearly complete death)) | 3 (mortality of at least 40% and less than 70%) | 5 (mortality of 90% or above (nearly complete death)) | 3 (mortality of at least 40% and less than 70%) | 4 (mortality of at least 70% and less than 90%) | I: velvetleaf, herbicidal effect (velvetleaf [20]): 0 (mortality of less than 5% (almost ineffective)); N: common chickweed, herbicidal effect (common chickweed [21]): 3 (mortality of at least 40% and less than 70%); O: beadstraw, herbicidal effect (beadstraw [22]): 4 (mortality of at least 70% and less than 90%); G: water foxtail, herbicidal effect (water foxtail [23]): 5 (mortality of 90% or above (nearly complete death)); E: giant foxtail, herbicidal effect (giant foxtail [24]): 3 (mortality of at least 40% and less than 70%); K: redroot pigweed, herbicidal effect (redroot pigweed [25]): 1 (mortality of at least 5% and less than 20%); L: common lambsquater, herbicidal effect (common lambsquater [26]): 1 (mortality of at least 5% and less than 20%); F: wild oat, herbicidal effect (wild oat [27]): 0 (mortality of less than 5% (almost ineffective)); a: transplanted rice, effect on crop (evaluation scale 0-5) (transplanted rice): 0 (mortality of less than 5% (almost ineffective)); A: barnyardgrass, herbicidal effect (evaluation scale 0-5) (barnyardgrass [28]): 5 (mortality of 90% or above (nearly complete death)); C: ducksalad, herbicidal effect (evaluation scale 0-5) (ducksalad [29]): 5 (mortality of 90% or above (nearly complete death)); B: bulrush, herbicidal effect (evaluation scale 0-5) (bulrush [30]): 5 (mortality of 90% or above (nearly complete death)) |
